Here are results for three molecules from patent publication US4435574A, “2,6-Dimethyl-3,5-dicarbomethoxy-4-(ortho -di-fluoromethylthiophenyl)-1,4-dihydropyridine” (priority 1981, dated 1984).

Data set [1] relates to coronary blood flow. Briefly: Volume rate of the coronary blood flow in anesthetized cats, intravenous. The class given is in vivo. The note with it: for Effective period / Increase in coronary blood flow: intravenous.
The subject of data set [2] is coronary blood flow. The settings on record: prior-art compound, in words; cited from earlier work.
The conditions of data set [3]: prior-art compound, in words; cited from earlier work.
Data set [4] concerns arterial blood pressure of anesthetized cats. As to the kind of experiment: Reduction of arterial blood pressure by 30 percent (ED30) in anesthetized cats. The format is in vivo. The settings on record: for ED30: Felis catus, read-out: ED30 (effective dose that reduces arterial blood pressure by 30 percent).
The subject of data set [5] is spontaneously hypertensive rats. As to the kind of experiment: Systolic arterial pressure in awake spontaneously hypertensive female rats of the Okamoto-Aoki line, intragastric. The class given is in vivo. The note with it: for Hypotensive effect, %, upon administration to spontaneously hypertensive rats: into the stomach. The procedure:
Investigation of the pharmacological action of 2,6-dimethyl-3,5-dicarbomethoxy-4-(o-difluoromethylthiophenyl)-1,4-dihydropyridine upon parameters characterizing the performance of the cardiovascular system has been carried out in anesthetized cats, as well as in rats.
In the conditions as stated above, the proposed compound exceeded the SKF-24260 compound approximately 3 times with respect to both hypotensive activity and active period (see Table 1).
24 hours after administration of the proposed compound in a dose of 10 mg/kg, the systolic arterial pressure was down by a further 21.4±2.7%.

Data set [6] in a line: Acute toxicity in breedless white mice, intraperitoneal. The class given is in vivo. The settings on record: mouse, in vivo, ip; intraperitoneal administration to white mice. The text has this:
(§1) In experiments carried out in breedless white mice, the proposed compound, administered intraperitoneally, has been investigated for acute toxicity.

In data set [7] the test system is arterial blood pressure of anesthetized cats. The settings on record: prior-art compound, in words; cited from earlier work.
In data set [8] the test system is white mice. The note with it: prior-art compound, in words; cited from earlier work.
Data set [9] concerns white mice. Briefly: Acute toxicity in breedless white mice, intraperitoneal. The class given is in vivo. The note with it: in words.
Description: as §1

A further data set is described as follows: Light stability. The format is physicochemical. The settings on record: in words.
The nature of a further data set: Solubility. The format is physicochemical.

Several values for one entry are separate records, joined by “and”; a condition that tells them apart may be missing. Identical values can stand only once. Entries after “also recorded” stand apart in the source; their conditions may differ. Like-named read-outs stand apart in the source and are kept apart here.

Take `COC(=O)C1=C(C)NC(C)=C(C(=O)OC)C1c1ccccc1[N+](=O)[O-]` [Adalate, 2,6-dimethyl-3,5-dicarbomethoxy-4-(o-nitrophenyl)-1,4-dihydropyridine, reference compound]: in the data set with coronary blood flow [1] (0.05 mg/kg), the Effective period came out at 35 min and the “Increase in coronary blood flow” value is 90%. Also, the Coronarodilating activity result in the data set on coronary blood flow [2] is “high coronarodilating activity”. In addition, the Sensitivity to light result in data set [3] is given as “highly sensitive to light, decomposing rapidly in the presence of light”.
Consider `CCOC(=O)C1=C(C)NC(C)=C(C(=O)OCC)C1c1ccccc1C(F)(F)F` [SKF-24260, 2,6-dimethyl-3,5-dicarbothoxy-4-(o-trifluoromethylphenyl)-1,4-dihydropyridine, reference compound], for which, in data set [4], the ED30 was determined as 0.022 mg/kg. The “Systolic arterial pressure after 24 hours” value in data set [5] (10 mg/kg, 24 hours, result in words) is “return to the initial value or increase above the initial level; also recorded: Initial”. Besides, the “Hypotensive effect, %, upon administration to spontaneously hypertensive rats” value in data set [5] (after 6 hours, 1 mg/kg) is on record as 6.0%; in data set [5] (after 6 hours, 10 mg/kg) it was 15.8%. For the same molecule, the LD50 in [6] came to 38.5 mg/kg. Moreover, the “Duration of hypotensive effect” value in [7] is “short duration”. In data set [7], the Hypotensive activity result is given as “appreciable hypotensive activity”. The Toxicity result with white mice [8] is reported as “high toxicity”.
For the molecule `COC(=O)C1=C(C)NC(C)=C(C(=O)OC)C1c1ccccc1SC(F)F` [Proposed compound, 2,6-dimethyl-3,5-dicarbomethoxy-4-(o-difluoromethylthiophenyl)-1,4-dihydropyridine], in data set [4], the ED30 was 0.019 mg/kg. The “Hypotensive effect compared with SKF-24260” value in [4] (acute experiments, 50% aqueous dimethylacetamide, in words) is “same hypotensive effect”. Moreover, the Systolic arterial pressure result in data set [5] (1 mg/kg and 10 mg/kg into the stomach, in words) is reported as “dropped considerably”. In addition, the “Hypotensive effect, %, upon administration to spontaneously hypertensive rats” value is 19.5% in data set [5] (after 6 hours, 1 mg/kg); 54.8% in data set [5] (after 6 hours, 10 mg/kg); 21.4±2.7% and 21.4% in data set [5] (after 24 hours, 10 mg/kg, 10 mg/kg). The “Duration of hypotensive activity” value in data set [5] (in words) is “prolonged duration; also recorded: highly prolonged hypotensive activity”. Further, the “Duration of hypotensive action (active period) relative to SKF-24260” value in data set [5] (spontaneously hypertensive rats) is on record as “approximately 3 times”. The same molecule returned an LD50 in [6] of 93 mg/kg. In addition, in the data set on white mice [9], the Toxicity entry was “low toxicity”. Moreover, the “Toxicity compared with SKF-24260” value with white mice [9] (intraperitoneal, mice) was “considerably lower; also recorded: considerably less toxic”. The values for the Effective period in the data set with coronary blood flow [1] (0.05 mg/kg) and with coronary blood flow [1] (0.1 mg/kg) were 30 min and 65 min, respectively. For the same molecule, the “Increase in coronary blood flow” value in the data set on coronary blood flow [1] (0.05 mg/kg) is 103%; in the data set with coronary blood flow [1] (0.1 mg/kg) it was 150%. Also, the Coronarodilating effect entry in the data set with coronary blood flow [1] (in words) is reported as “pronounced coronarodilatory action; also recorded: capable of producing a coronarodilating effect”. Further, the “Coronarodilating effect compared with Adalate” value in the data set on coronary blood flow [1] (in words) was “comparable with that of Adalate; also recorded: comparable with the coronarodilatory action of Adalate”. Moreover, in “Light stability”, the Sensitivity to light entry is recorded as “light-resistant”. Besides, the “Solubility in organic solvents” value in the data set “Solubility” (organic solvents) is recorded as “soluble in organic solvents”. Moreover, in “Solubility” (water), the Solubility in water result was “insoluble in water”.

Broadly, the LD50 is the dose at which mortality reaches 50%.
